Values of other authors in article PMC4435776 (Journal of cardiovascular translational research, 2014).

Test system: Mouse ESC
Settings: compared with the effect of CsA; ref [56]

| Compound | effect on stem cells of other calcineurin/NFAT inhibitors |
| --- | --- |
| 11R-VIVIT | absence of a significant effect |
| C=CC[C@@H]1/C=C(\C)C[C@H](C)C[C@H](OC)[C@H]2O[C@@](O)(C(=O)C(=O)N3CCCC[C@H]3C(=O)O[C@H](/C(C)=C/[C@@H]3CC[C@@H](O)[C@H](OC)C3)[C@H](C)[C@@H](O)CC1=O)[C@H](C)C[C@@H]2OC [tacrolimus] | absence of a significant effect |
